The record followed here is US4268630A, “Microbiological production of ketones from C3 -C6 alkanes” (priority 1979, dated 1981).

Entries after “also recorded” stand apart in the source; their conditions may differ. Read-outs that look alike come from different tables or passages of the source.

The subject of assay [1] is secondary alcohol dehydrogenase. Kind of assay: Activity of purified yeast-derived secondary alcohol dehydrogenase. The class given is biochemical, Pichia sp. NRRL Y-11,328. As to conditions: for inhibition of secondary alcohol dehydrogenase activity (in words): primary alcohols tested at 10^-3 M.
Assay [2] concerns cell-free particulate fraction of methane-grown methylotrophs. Kind of assay: Conversion of n-alkanes to sec. alcohols by cell-free particulate fractions: inhibitors and electron donors. The class given is biochemical. An excerpt: The conditions for preparing the cell suspensions or the cell-free particulate fractions from methane-grown methylotroph microorganisms is the same as described above.

Assay [3] relates to cell suspensions of C1-utilizers. Kind of assay: Production of 2-butanone from 2-butanol / sec-alcohol oxidation by cell suspensions of the strains tested. Format: cell-based. The note with it: for inhibition of production of 2-butanone from 2-butanol (in words): cell suspensions of the strains tested. An excerpt:
The substrate specificity for the oxidation of C3 -C6 secondary alcohols by the strains of C1 -utilizers was studied.

The subject of assay [4] is secondary alcohol dehydrogenase (SADH). Kind of assay: Activity of purified secondary alcohol dehydrogenase (inhibition, substrate specificity, Km). The class given is biochemical, Pseudomonas sp. ATCC 21439. The note with it: for % inhibition of SADH activity: each inhibitor at a final concentration of 1 mM, spectrofluorometric; for relative percent rate of oxidation: 2-butanol = 100%. The protocol:
Secondary alcohol dehydrogenase (SADH) from an obligate methanol utilizer, Pseudomonas sp. ATCC 21439 was purified as follows. […] 0.05 M sodium phosphate buffer, pH 7.0 with 0.5 mM dithiothretol (buffer A) and were disrupted sonically (5×1 min.). The crude extract was separated by centrifugation. The crude extract was heat-treated at 50° C. in a water bath for 10 minutes. The resulting precipitate was removed by centrifugation. To the supernatant solution, 25 ml of protamine sulfate solution (2% solution in 0.1 M Tris base) was added dropwise with continuous stirring. After standing for 30 minutes, the extract was centrifuged. The supernatant solution was fractionated with solid ammonium sulfate. The material precipitating between 30 and 60% saturation was collected and was dialized overnight against buffer A. The The dialized material was applied to a DEAE-cellulose column (3 cm by 35 cm) that had been equilibrated with buffer A. The secondary alcohol dehydrogenase activity was eluted in the void volume. This DEAE-cellulose eluate was concentrated by ammonium sulfate fractionation. Material precipitating between 30 and 50% ammonium sulfate saturation was collected by centrifugation and dialyzed overnight against A. This fraction was further washed and filtered through an Amicon unit with XM 50 membrane. The concentrated fraction (6 ml) inside the Amicon unit was applied to an Affi-Gel Blue column (0.8 cm×18 cm) which had been equilibrated with buffer A for affinity chromatography. The column was washed overnight with buffer A (0.18 ml./min.) and then was eluted with buffer A containing 5 mM NAD. Each 1 ml. fraction was collected.
The purified secondary alcohol dehydrogenase enzyme (SADH) may be used directly for converting C3 -C6 secondary alcohols to the corresponding methyl ketones by the procedures described above; however, a source of NAD^+ must be added to the reaction medium. One can determine the NAD-linked secondary alcohol dehydrogenase activity with a fluorescence spectrophotometer (Perkin Elmer, Model MPF 44A) by following the formation of reduced NAD (Ex 340 nm, Em 460 nm). The assay system (3 ml.) will typically contain: sodium phosphate buffer pH 7.0, 150 μmol; NAD 1.0 μmol; a given amount of enzyme preparation; and 20 μmol secondary alcohol. The reaction is started by the addition of secondary alcohol. One unit of SADH enzyme activity represents the reduction of one nmole NAD per minute.
The effect of metal-chelating agents and thioreagents on the activity of the purified SADH enzyme were studied. […] The possibility of ethanol or n-propanol as an inhibitor was studied.

For assay [5], the system named is Methylosinus trichosporium OB3b NRRL B-11,196. The experiment in a line: Conversion of n-alkanes to oxidation products by cell suspensions. Format: cell-based. The note with it: methane-grown cell suspension, pH 7.0.
Description: (§1) ^(a) Cell-suspensions of methanegrown methylotroph microorganisms
(§2) indicated in 0.15 M phosphate buffer, pH 7.0 incubated in the alkanes as
(§3) indicated at 3° C. The oxidation products were determined by g.l.c
The test system of assay [6] is Methylococcus capsulatus CRL M1 NRRL B-11,219. The assay is described as above. The note with it: methane-grown cell suspension, pH 7.0. The class given is cell-based.
Description: as §1, §2, §3

Turning to `CC(O)CO` (centres unmarked) [1,2-propandiol], the “substrate specificity of purified yeast secondary alcohol dehydrogenase (in words)” value in assay [1] (spectrophotometric) is “not oxidized”.

For the compound `c1cnc2c(c1)ccc1cccnc12` [1,10-phenanthroline, reference compound], the “inhibition of conversion of n-alkanes to sec. alcohols (in words)” value (from here on “inhibition of conversion of n-alkanes”) in assay [2] is “inhibited”. In addition, the “inhibition of secondary alcohol dehydrogenase activity (in words)” value in assay [1] is reported as “strongly inhibited”. Further, in assay [3], the “inhibition of production of 2-butanone from 2-butanol (in words)” value (shortened to “inhibition of production of 2-butanone”) is on record as “inhibited”. Further, the “% inhibition of SADH activity” value in assay [4] came out at 95%.

For `CCC(C)=O` [2-Butanone, 2-butanone], in assay [3] (exogenously supplied 2-butanone (8 μmoles) with viable cell suspensions), the “product inhibition of 2-butanone production” value was “No product (2-butanone) inhibition; also recorded: did not inhibit”. Moreover, the “inhibition of SADH activity (in words)” value in assay [4] (purified SADH) is listed as “inhibited”.

`CCCCCC(C)O` (centres unmarked) [2-heptanol]: the “substrate specificity of purified yeast secondary alcohol dehydrogenase (in words)” value in assay [1] (spectrophotometric) is “not oxidized”. Moreover, the “substrate specificity: rate of oxidation of secondary alcohols (in words)” value in assay [3] (cell suspensions of C1-utilizers) was “oxidized at a much slower rate”.

Take `CCCCCCC(C)O` (centres unmarked) [2-octanol]: in assay [1] (spectrophotometric), the “substrate specificity of purified yeast secondary alcohol dehydrogenase (in words)” value was “not oxidized”.

In the case of `O=C(O)c1cc(SSc2ccc([N+](=O)[O-])c(C(=O)O)c2)ccc1[N+](=O)[O-]` [5,5'-dithiobis(2-nitrobenzoic acid), reference compound], the “% inhibition of SADH activity” value in assay [4] was determined as 100%. The “inhibition of SADH activity (in words)” value in assay [4] (purified SADH) is on record as “inhibited”.

On to `Oc1cccc2cccnc12` [8-hydroxyquinoline], for which the “inhibition of conversion of n-alkanes” value in assay [2] is on record as “inhibited”.

With `[Co+2]` [Co^++, reference compound], in assay [4], the “% inhibition of SADH activity” value is 0%.

As to `CC` [Ethane], the “Conversion Rate to product Ethanol” value in assay [5] is given as 1.3 μmoles/hr./mg./protein; in assay [6], 2.0 μmoles/hr./mg./protein.

For the compound `C` [Methane], the “Conversion Rate to product Methanol” value in assay [5] ([…] phosphate buffer) came out at 1.5 μmoles/hr./mg./protein; in assay [6], 2.5 μmoles/hr./mg./protein.

On to `[Mg+2]` [Mg^++, reference compound], for which, in assay [4], the “% inhibition of SADH activity” value came to 0%.

In the case of `[Mn+2]` [Mn^++, reference compound], the “% inhibition of SADH activity” value in assay [4] is 0%.

In the case of `CCN1C(=O)C=CC1=O` [N-ethylmalemide, N-ethylmaleimide, reference compound], in assay [4], the “% inhibition of SADH activity” value worked out at 6%. The “inhibition of SADH activity (in words)” value in assay [4] (purified SADH) was “not inhibited”.

Turning to `NC(=O)C1=CN([C@@H]2O[C@H](COP(=O)(O)OP(=O)(O)OC[C@H]3O[C@@H](n4cnc5c(N)ncnc54)[C@H](O)[C@@H]3O)[C@@H](O)[C@H]2O)C=CC1` [NADH, reduced nicotinamide adenine dinucleotide], in assay [2], the “use as electron donor for hydroxylation of n-alkanes” value is “requires”.

As to `NC(=O)C1=CN([C@@H]2O[C@H](COP(=O)(O)OP(=O)(O)OC[C@H]3O[C@@H](n4cnc5c(N)ncnc54)[C@H](OP(=O)(O)O)[C@@H]3O)[C@@H](O)[C@H]2O)C=CC1` [NADPH, reduced nicotinamide adenine dinucleotide phosphate], the “use as electron donor for hydroxylation of n-alkanes” value in assay [2] was “could also be utilized as an electron donor”.

Take `[N-]=[N+]=[N-]` [Sodium azide, reference compound]: the “% inhibition of SADH activity” value in assay [4] stood at 10%.

`NC(N)=S` [Thiourea, reference compound]: the “inhibition of conversion of n-alkanes” value in assay [2] is “inhibited”. The “inhibition of production of 2-butanone” value in assay [3] is “not inhibited”. Moreover, the “% inhibition of SADH activity” value in assay [4] is given as 0%. The “inhibition of SADH activity (in words)” value in assay [4] (purified SADH) was “not inhibited”.

For the compound `[Zn+2]` [Zn^++, reference compound], in assay [4], the “stimulation of SADH activity by exogenous zinc” value is “did not stimulate” and the “% inhibition of SADH activity” value was 0%.

As for `CC=O` [acetaldehyde], in assay [4], the “substrate specificity of purified SADH (in words)” value is given as “lower rate” and the “relative percent rate of oxidation” value was determined as 4%.

Take `O=Cc1ccccc1` [benzaldehyde]: the “substrate specificity of purified SADH (in words)” value in assay [4] is “not oxidized”.

As to `CCCCO` [butan-1-ol], in assay [1], the “substrate specificity of purified yeast secondary alcohol dehydrogenase (in words)” value is on record as “not oxidized”.

As to `CCC(O)CO` (centres unmarked) [butane 1,2-diol], the “substrate specificity of purified yeast secondary alcohol dehydrogenase (in words)” value in assay [1] (spectrophotometric) is “not oxidized”. Besides, the “substrate specificity of purified SADH (in words)” value in assay [4] is “not oxidized”.

In the case of `CC(O)CCO` (centres unmarked) [butane 1,3-diol], the “substrate specificity of purified yeast secondary alcohol dehydrogenase (in words)” value in assay [1] (spectrophotometric) is recorded as “not oxidized”. Besides, in assay [4], the “substrate specificity of purified SADH (in words)” value was “lower rate” and the “relative percent rate of oxidation” value was determined as 2%.

In the case of `CC(O)C(C)O` (centres unmarked) [butane 2,3-diol], in assay [4], the “substrate specificity of purified SADH (in words)” value is on record as “lower rate” and the “relative percent rate of oxidation” value is 2.5%.

Regarding `O=S(=O)([O-])[O-].[Cu+2]` [cupric sulfate, reference compound], the “inhibition of secondary alcohol dehydrogenase activity (in words)” value in assay [1] is recorded as “inhibited”.

As to `[Cu+2]` [cupric, reference compound], the “% inhibition of SADH activity” value in assay [4] was 25%.

Turning to `OC1CCCCC1` [cyclohexanol], in assay [4], the “substrate specificity of purified SADH (in words)” value is given as “lower rate” and the “relative percent rate of oxidation” value is 4%.

For `CCO` [ethanol], in assay [1], the “substrate specificity of purified yeast secondary alcohol dehydrogenase (in words)” value is given as “not oxidized”. For the same compound, the “inhibition of SADH activity (in words)” value in assay [4] is listed as “did not inhibit”.

On to `[Fe+3]` [ferric, reference compound], for which, in assay [4], the “% inhibition of SADH activity” value is 35%.

With `[Fe+2]` [ferrous, reference compound], the “% inhibition of SADH activity” value in assay [4] stood at 50%.

Consider `C=O` [formaldehyde], for which, in assay [4], the “substrate specificity of purified SADH (in words)” value is listed as “not oxidized”.

Regarding `c1c[nH]cn1` [imidiazole, reference compound], the “inhibition of secondary alcohol dehydrogenase activity (in words)” value in assay [1] is “strongly inhibited”.

In the case of `O=C(O)CI` [iodoacetic acid, reference compound], the “inhibition of SADH activity (in words)” value in assay [4] is given as “not inhibited”.

Take `CC(C)CO` [isobutanol]: in assay [4], the “substrate specificity of purified SADH (in words)” value is on record as “not oxidized”.

For `N#C[S][Hg][S]C#N` [mercuric thiocyanate, reference compound], the “inhibition of secondary alcohol dehydrogenase activity (in words)” value in assay [1] is recorded as “inhibited”.

As to `CO` [methanol], in assay [1] (spectrophotometric), the “substrate specificity of purified yeast secondary alcohol dehydrogenase (in words)” value was “not oxidized”.

As for `CCCO` [n-propanol], in assay [1], the “substrate specificity of purified yeast secondary alcohol dehydrogenase (in words)” value is recorded as “not oxidized”. Moreover, in assay [4], the “inhibition of SADH activity (in words)” value was “did not inhibit”.

On to `[Ni+2]` [nickel, reference compound], for which, in assay [4], the “% inhibition of SADH activity” value is recorded as 20%.

Take `O=C(O)c1cc[c]([Hg+])cc1.[OH-]` [p-hydroxymercuribenzoate, reference compound]: the “inhibition of secondary alcohol dehydrogenase activity (in words)” value in assay [1] was “strongly inhibited”. The “% inhibition of SADH activity” value in assay [4] is 100%.

`CCCCCO` [pentan-1-ol]: the “substrate specificity of purified yeast secondary alcohol dehydrogenase (in words)” value in assay [1] (spectrophotometric) was “not oxidized”.

On to `Oc1ccccc1` [phenol], for which, in assay [4], the “substrate specificity of purified SADH (in words)” value is “not oxidized”.

Turning to `CCCO` [propanol], in assay [4], the “substrate specificity of purified SADH (in words)” value is listed as “lower rate” and the “relative percent rate of oxidation” value is 2%.

In the case of `C=CC` [propylene], the figures for the “inhibition of conversion of n-alkanes” value in assay [2] and in assay [2] (listed as Propylene) were “inhibited” and “inhibit”, respectively.

Turning to `O=[N+]([O-])[O-].[Ag+]` [silver nitrate, reference compound], the “inhibition of secondary alcohol dehydrogenase activity (in words)” value in assay [1] was “inhibited”.

On to `O=C(O)CCC(=O)O` [succinic acid], for which the “substrate specificity of purified SADH (in words)” value in assay [4] was “not oxidized”.

Consider `NNC(N)=S` [thiosemicarbazide], for which, in assay [2], the “inhibition of conversion of n-alkanes” value is recorded as “inhibited”.

Consider `c1ccc(-c2ccccn2)nc1` [α,α-bipyridyl, reference compound], for which the “inhibition of conversion of n-alkanes” value in assay [2] is recorded as “inhibited”. Moreover, the “inhibition of production of 2-butanone” value in assay [3] is “inhibited”. In addition, the “% inhibition of SADH activity” value in assay [4] was 70%.

With cytochrome c [reference compound], in assay [1] (purified enzyme), the “ability to act as electron acceptor/carrier” value is “could not act as electron carrier”.
